Results as given in PubChem BioAssay AID1963959 (Molecular Pharmacology Branch, DTP, NCI, 2024).
Several values for one entry are separate records, joined by “and”; a condition that tells them apart may be missing. Identical values can stand only once.

Test system: T-47D spheroids with HUVEC/MSC, viability
Test: Anticancer human tumor T-47D cell line growth inhibition [PI3K];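 further: spheroids exposed to agents for seven days before reading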;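 on viability, T/C: percent of DMSO vehicle control luminescence so 100% = untreated growth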
Settings: for viability, T/C: stronger effect = lower value
In short: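 Tumor cells were combined with HUVEC and MSCs into spheroids, then dosed with PI3K-inhibitor combinations over half-log ranges capped near clinical Cmax or 10 microM.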

[1] = curve of first compound, second compound 0.0316 µM
[2] = curve of first compound, second compound 0.1 µM
[3] = curve of first compound, second compound 0.316 µM
[4] = curve of first compound, second compound 1 µM
[5] = second compound 0.0316 µM, first compound 0.00949 µM
[6] = second compound 0.0316 µM, first compound 0.03 µM
[7] = second compound 0.0316 µM, first compound 0.0949 µM
[8] = second compound 0.0316 µM, first compound 0.3 µM
[9] = second compound 0.0316 µM, first compound 0.949 µM
[10] = second compound 0.0316 µM, first compound 3 µM
[11] = second compound 0.1 µM, first compound 0.00949 µM
[12] = second compound 0.1 µM, first compound 0.03 µM
[13] = second compound 0.1 µM, first compound 0.0949 µM
[14] = second compound 0.1 µM, first compound 0.3 µM
[15] = second compound 0.1 µM, first compound 0.949 µM
[16] = second compound 0.1 µM, first compound 3 µM
[17] = second compound 0.316 µM, first compound 0.00949 µM
[18] = second compound 0.316 µM, first compound 0.03 µM
[19] = second compound 0.316 µM, first compound 0.0949 µM
[20] = second compound 0.316 µM, first compound 0.3 µM
[21] = second compound 0.316 µM, first compound 0.949 µM
[22] = second compound 0.316 µM, first compound 3 µM
[23] = second compound 1 µM, first compound 0.00949 µM
[24] = second compound 1 µM, first compound 0.03 µM
[25] = second compound 1 µM, first compound 0.0949 µM
[26] = second compound 1 µM, first compound 0.3 µM
[27] = second compound 1 µM, first compound 0.949 µM
[28] = second compound 1 µM, first compound 3 µM
[29] = curve of first compound, second compound 0.00316 µM
[30] = curve of first compound, second compound 0.01 µM

`Cn1cnc2c(F)c(Nc3ccc(Br)cc3Cl)c(C(=O)NOCCO)cc21` + Cc1nc(NC(=O)N2CCCC2C(N)=O)sc1-c1ccnc(C(C)(C)C(F)(F)F)c1 showed an IC50 [1] of over 3 µM, an IC50 [2] of over 3 µM and an IC50 [3] of over 3 µM. The IC50 [4] was over 3 µM, the IC50 (curve of first compound, second compound 3.16 µM) was over 3 µM and the IC50 (curve of first compound, second compound 10 µM) was under 0.00949 µM. For the same molecule, the viability, T/C [5] was 118%, the viability, T/C [6] was 93.1% and the viability, T/C [7] was 92.6%. The viability, T/C [8] was 85.5%, the viability, T/C [9] was 93.1% and the viability, T/C [10] was 105%. The viability, T/C [11] was 94.9%, the viability, T/C [12] was 96.7% and the viability, T/C [13] was 85.7%. The viability, T/C [14] was 96.1%, the viability, T/C [15] was 84.9% and the viability, T/C [16] was 92.3%. For the same molecule, the viability, T/C [17] was 97.4%, the viability, T/C [18] was 102% and the viability, T/C [19] was 92.6%. It also gave a viability, T/C [20] of 91.2%, a viability, T/C [21] of 95.5% and a viability, T/C [22] of 92.3%. The viability, T/C [23] was 88.2%, the viability, T/C [24] was 81.3% and the viability, T/C [25] was 96.2%. The viability, T/C [26] was 93.4%, the viability, T/C [27] was 85.8% and the viability, T/C [28] was 96%. The viability, T/C (second compound 3.16 µM, first compound 0.00949 µM) was 77%, the viability, T/C (second compound 3.16 µM, first compound 0.03 µM) was 67.8% and the viability, T/C (second compound 3.16 µM, first compound 0.0949 µM) was 65.4%. The viability, T/C (second compound 3.16 µM, first compound 0.3 µM) was 65.5%, the viability, T/C (second compound 3.16 µM, first compound 0.949 µM) was 66.8% and the viability, T/C (second compound 3.16 µM, first compound 3 µM) was 72.2%. The viability, T/C (second compound 10 µM, first compound 0.00949 µM) was 36.7%, the viability, T/C (second compound 10 µM, first compound 0.03 µM) was 38.9% and the viability, T/C (second compound 10 µM, first compound 0.0949 µM) was 41.8%. The viability, T/C (second compound 10 µM, first compound 0.3 µM) was 37.7%, the viability, T/C (second compound 10 µM, first compound 0.949 µM) was 39.6% and the viability, T/C (second compound 10 µM, first compound 3 µM) was 36.6%.

`Cn1cnc2c(F)c(Nc3ccc(Br)cc3Cl)c(C(=O)NOCCO)cc21` + CC(Nc1ccc2c(c1)OCCn1cc(N3C(=O)OCC3C(F)F)nc1-2)C(N)=O was tested, and the IC50 [29] was over 3 µM, the IC50 [30] was over 3 µM and the IC50 [1] was over 3 µM. The IC50 [2] was over 3 µM, the IC50 [3] was over 3 µM and the IC50 [4] was 0.294 µM. The viability, T/C (second compound 0.00316 µM, first compound 0.00949 µM) was 105%, the viability, T/C (second compound 0.00316 µM, first compound 0.03 µM) was 84.7% and the viability, T/C (second compound 0.00316 µM, first compound 0.0949 µM) was 99.8%. The viability, T/C (second compound 0.00316 µM, first compound 0.3 µM) was 91.8%, the viability, T/C (second compound 0.00316 µM, first compound 0.949 µM) was 86.1% and the viability, T/C (second compound 0.00316 µM, first compound 3 µM) was 79.2%. The viability, T/C (second compound 0.01 µM, first compound 0.00949 µM) was 97.5%, the viability, T/C (second compound 0.01 µM, first compound 0.03 µM) was 80.4% and the viability, T/C (second compound 0.01 µM, first compound 0.0949 µM) was 96.1%. It also gave a viability, T/C (second compound 0.01 µM, first compound 0.3 µM) of 98.8%, a viability, T/C (second compound 0.01 µM, first compound 0.949 µM) of 82.3% and a viability, T/C (second compound 0.01 µM, first compound 3 µM) of 88.5%. For the same molecule, the viability, T/C [5] was 95.5%, the viability, T/C [6] was 80.5% and the viability, T/C [7] was 101%. For the same molecule, the viability, T/C [8] was 96.6%, the viability, T/C [9] was 97.8% and the viability, T/C [10] was 86.4%. For the same molecule, the viability, T/C [11] was 85.6%, the viability, T/C [12] was 86.1% and the viability, T/C [13] was 83.5%. It also gave a viability, T/C [14] of 90.2%, a viability, T/C [15] of 86.5% and a viability, T/C [16] of 83.8%. It also gave a viability, T/C [17] of 71.3%, a viability, T/C [18] of 75.3% and a viability, T/C [19] of 70.3%. The viability, T/C [20] was 66.5%, the viability, T/C [21] was 71.8% and the viability, T/C [22] was 61.1%. The viability, T/C [23] was 54%, the viability, T/C [24] was 56.8% and the viability, T/C [25] was 59.2%. It also gave a viability, T/C [26] of 49.7%, a viability, T/C [27] of 47.8% and a viability, T/C [28] of 52.2%.

For `CCCS(=O)(=O)Nc1ccc(F)c(C(=O)c2c[nH]c3ncc(-c4ccc(Cl)cc4)cc23)c1F`, the viability, T/C (compound 0.0316 µM) was 91% and 97.4% (2×) and 99.9%, the viability, T/C (compound 0.1 µM) was 94.3% [middle of 4 runs] and the viability, T/C (compound 0.316 µM) was 106% [middle of 4 runs]. For the same molecule, the viability, T/C (compound 1 µM) was 107% [middle of 4 runs], the viability, T/C (compound 10 µM) was 47.2% [middle of 4 runs] and the IC50 (curve of compound) was 9.4 µM [middle of 4 runs].

Molecule `CNC(=O)c1ccc(N2C(=S)N(c3ccc(C#N)c(C(F)(F)F)c3)C(=O)C2(C)C)cc1F` + COc1c(OCCCN2CCOCC2)ccc2c3n(c(=NC(=O)c4cnc(N)nc4)nc12)CCN3 has an IC50 [29] of over 10 µM, an IC50 [30] of over 10 µM and an IC50 [1] of over 10 µM. It also gave an IC50 [2] of under 0.0316 µM, an IC50 [3] of under 0.0316 µM and an IC50 [4] of under 0.0316 µM. It also gave a viability, T/C (second compound 0.00316 µM, first compound 0.0316 µM) of 122%, a viability, T/C (second compound 0.00316 µM, first compound 0.1 µM) of 84.3% and a viability, T/C (second compound 0.00316 µM, first compound 0.316 µM) of 87.8%. It also gave a viability, T/C (second compound 0.00316 µM, first compound 1 µM) of 81.1%, a viability, T/C (second compound 0.00316 µM, first compound 3.16 µM) of 98.8% and a viability, T/C (second compound 0.00316 µM, first compound 10 µM) of 86.5%. For the same molecule, the viability, T/C (second compound 0.01 µM, first compound 0.0316 µM) was 102%, the viability, T/C (second compound 0.01 µM, first compound 0.1 µM) was 90.3% and the viability, T/C (second compound 0.01 µM, first compound 0.316 µM) was 105%. It also gave a viability, T/C (second compound 0.01 µM, first compound 1 µM) of 104%, a viability, T/C (second compound 0.01 µM, first compound 3.16 µM) of 81.3% and a viability, T/C (second compound 0.01 µM, first compound 10 µM) of 91.2%. For the same molecule, the viability, T/C (second compound 0.0316 µM, first compound 0.0316 µM) was 72.3%, the viability, T/C (second compound 0.0316 µM, first compound 0.1 µM) was 80% and the viability, T/C (second compound 0.0316 µM, first compound 0.316 µM) was 72.1%. It also gave a viability, T/C (second compound 0.0316 µM, first compound 1 µM) of 69.1%, a viability, T/C (second compound 0.0316 µM, first compound 3.16 µM) of 64.4% and a viability, T/C (second compound 0.0316 µM, first compound 10 µM) of 62%. For the same molecule, the viability, T/C (second compound 0.1 µM, first compound 0.0316 µM) was 37.6%, the viability, T/C (second compound 0.1 µM, first compound 0.1 µM) was 44.8% and the viability, T/C (second compound 0.1 µM, first compound 0.316 µM) was 40%. The viability, T/C (second compound 0.1 µM, first compound 1 µM) was 46%, the viability, T/C (second compound 0.1 µM, first compound 3.16 µM) was 37.2% and the viability, T/C (second compound 0.1 µM, first compound 10 µM) was 43.8%. For the same molecule, the viability, T/C (second compound 0.316 µM, first compound 0.0316 µM) was 18.9%, the viability, T/C (second compound 0.316 µM, first compound 0.1 µM) was 21.8% and the viability, T/C (second compound 0.316 µM, first compound 0.316 µM) was 16.7%. For the same molecule, the viability, T/C (second compound 0.316 µM, first compound 1 µM) was 19.6%, the viability, T/C (second compound 0.316 µM, first compound 3.16 µM) was 18.1% and the viability, T/C (second compound 0.316 µM, first compound 10 µM) was 14.9%. For the same molecule, the viability, T/C (second compound 1 µM, first compound 0.0316 µM) was 5.78%, the viability, T/C (second compound 1 µM, first compound 0.1 µM) was 6.91% and the viability, T/C (second compound 1 µM, first compound 0.316 µM) was 7.72%. The viability, T/C (second compound 1 µM, first compound 1 µM) was 3.81%, the viability, T/C (second compound 1 µM, first compound 3.16 µM) was 3.1% and the viability, T/C (second compound 1 µM, first compound 10 µM) was 4.67%.
